Assay results as given in patent publication US11554171B2, “Compounds and methods for the targeted degradation of bromodomain-containing proteins” (Arvinas Operations, Inc., priority 2015, dated 2023).

Tested on: c-myc in 22RV-1 cells
Assay: Human c-myc ELISA assay
Type: cell-based
Settings: Homo sapiens; for Emax: 22Rv1, 18 h, read-out: Degradation of BRD4: Maximum inhibition (%) c-Myc ELISA in 22RV1 cells; for DC50: 22Rv1, read-out: Degradation of BRD4: DC50 (uM) c-Myc ELISA in 22RV1 cells
How it was run: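 22RV-1 cells treated 18 h with 8-point 1:3 compound dilutions (final top 300 nM or 1 μM, 0.1% DMSO). Cells lysed in RIPA buffer with protease/phosphatase inhibitors, and c-myc protein in cleared lysate quantified by ELISA against a standard curve. DC50 reported for c-myc suppression.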

Compound | DC50 | Emax
Cc1ncsc1-c1ccc(CNC(=O)[C@@H]2C[C@@H](O)CN2C(=O)[C@@H](NC(=O)COCCCOCCCOc2ccc(NC(=O)C[C@@H]3N=C(c4ccc(Cl)cc4)c4c(sc(C)c4C)-n4c(C(C)C)nnc43)cc2)C(C)(C)C)cc1 [Example 54] | > 1 µM | 63%
Cc1ncsc1-c1ccc(CNC(=O)[C@@H]2C[C@@H](O)CN2C(=O)[C@@H](NC(=O)COCCN2CCC(c3ccc([C@@H](C)NC(=O)C[C@@H]4N=C(c5ccc(Cl)cc5)c5c(sc(C)c5C)-n5c(C)nnc54)cc3)CC2)C(C)(C)C)cc1 [Example 57] | 0.1 to 1 µM | 94%
Cc1ncsc1-c1ccc(CNC(=O)[C@@H]2C[C@@H](O)CN2C(=O)[C@@H](NC(=O)COCCN2CCN(c3ccc([C@H](C)NC(=O)C[C@@H]4N=C(c5ccc(Cl)cc5)c5c(sc(C)c5C)-n5c(C)nnc54)cc3)CC2)C(C)(C)C)cc1 [Example 58, (2S,4R)-1-[(2S)-2-{2-[2-(4-{4-[(1S)-1-{2-[(9S)-7-(4-chlorophenyl)-4,5,13-trimethyl-3-thia-1,8,11,12-tetraazatricyclo[8.3.0.0^2,^6]trideca-2(6),4,7,10,12-pentaen-9-yl]acetamido}ethyl]phenyl}piperazin-1-yl)ethoxy]acetamido}-3,3-dimethylbutanoyl]-4-hydroxy-N-{[4-(4-methyl-1,3-thiazol-5-yl)phenyl]methyl}pyrrolidine-2-carboxamide] | 0.1 to 1 µM | 88%
Cc1ncsc1-c1ccc(CNC(=O)[C@@H]2C[C@@H](O)CN2C(=O)[C@@H](NC(=O)COCCN2CCN(c3ccc([C@@H](C)NC(=O)C[C@@H]4N=C(c5ccc(Cl)cc5)c5c(sc(C)c5C)-n5c(C)nnc54)cc3)CC2)C(C)(C)C)cc1 [Example 59] | 0.1 to 1 µM | 95%
Cc1ncsc1-c1ccc(CNC(=O)[C@@H]2C[C@@H](O)CN2C(=O)[C@@H](NC(=O)COCCN2CCN(c3ccc(CNC(=O)C[C@@H]4N=C(c5ccc(Cl)cc5)c5c(sc(C)c5C)-n5c(C)nnc54)cc3)CC2)C(C)(C)C)cc1 [Example 60] | 0.1 to 1 µM | 91%
Cc1ncsc1-c1ccc([C@H](C)NC(=O)[C@@H]2C[C@H](O)CN2C(=O)[C@@H](NC(=O)COCCCOCCNC(=O)C[C@@H]2N=C(c3ccc(Cl)cc3)c3c(sc(C)c3C)-n3c(C)nnc32)C(C)(C)C)cc1 [Example 71] | > 1 µM | 11.2%
Cc1ncsc1-c1ccc([C@H](C)NC(=O)[C@H]2C[C@H](O)CN2C(=O)[C@@H](NC(=O)COCCCOCCNC(=O)C[C@@H]2N=C(c3ccc(Cl)cc3)c3c(sc(C)c3C)-n3c(C)nnc32)C(C)(C)C)cc1 [Example 72, (2R, 4S)-1-[(2S)-2-{2-[3-(2-{2-[(9S)-7-(4-chlorophenyl)-4,5,13-trimethyl-3-thia-1,8,11,12-tetraazatricyclo[8.3.0.0^2,^6]trideca-2(6),4,7,10,12-pentaen-9-yl]acetamido}ethoxy)propoxy]acetamido}-3,3-dimethylbutanoyl]-4-hydroxy-N-[(1S)-1-[4-(4-methyl-1,3-thiazol-5-yl)phenyl]ethyl]pyrrolidine-2-carboxamide] | > 1 µM | 10.2%
Cc1ncsc1-c1ccc(CNC(=O)[C@@H]2C[C@H](O)CN2C(=O)[C@@H](NC(=O)COCCCOCCNC(=O)C[C@@H]2N=C(c3ccc(Cl)cc3)c3c(sc(C)c3C)-n3c(C)nnc32)C(C)(C)C)cc1 [Example 73] | > 1 µM | 21.4%
Cc1ncoc1-c1ccc(CNC(=O)[C@@H]2C[C@@H](O)CN2C(=O)[C@@H](NC(=O)COCCCOCCNC(=O)C[C@@H]2N=C(c3ccc(Cl)cc3)c3c(sc(C)c3C)-n3c(C)nnc32)C(C)(C)C)cc1 [Example 74] | 0.01 to 0.1 µM | 97%
Cc1sc2c(c1C)C(c1ccc(Cl)cc1)=N[C@@H](CC(=O)NCCOCCCOCC(=O)N[C@H](C(=O)N1C[C@H](O)C[C@H]1C(=O)NCc1ccc(C#N)cc1)C(C)(C)C)c1nnc(C)n1-2 [Example 75] | 0.1 to 1 µM | 58.5%
Cc1sc2c(c1C)C(c1ccc(Cl)cc1)=N[C@@H](CC(=O)NCCOCCCOCC(=O)N[C@H](C(=O)N1C[C@H](O)C[C@H]1C(=O)NCc1ccc(Cl)cc1)C(C)(C)C)c1nnc(C)n1-2 [Example 76] | 0.1 to 1 µM | 58.6%
Cc1ncsc1-c1ccc(CNC(=O)[C@@H]2C[C@@H](O)CN2C(=O)[C@@H](NC(=O)COCCn2cc(-c3ccc([C@@H](C)NC(=O)C[C@@H]4N=C(c5ccc(Cl)cc5)c5c(sc(C)c5C)-n5c(C)nnc54)cc3)cn2)C(C)(C)C)cc1 [Example 78] | 0.1 to 1 µM | 86.7%
Cc1ncsc1-c1ccc(CNC(=O)[C@@H]2C[C@@H](O)CN2C(=O)[C@@H](NC(=O)COCCN2CCC(NC(=O)C[C@@H]3N=C(c4ccc(Cl)cc4)c4c(sc(C)c4C)-n4c(C)nnc43)CC2)C(C)(C)C)cc1 [Example 79] | > 1 µM | 50.8%

The next lines start with results.

DC50 | Compound | Emax
< 0.01 µM | Cc1ncsc1-c1ccc(CNC(=O)[C@@H]2C[C@@H](O)CN2C(=O)[C@@H](NC(=O)COCCCOCCCOc2ccc(NC(=O)C[C@@H]3N=C(c4ccccc4)c4c(sc(C)c4C)-n4c(C)nnc43)cc2)C(C)(C)C)cc1 [Example 55, (2S,4R)-1-[(2S)-3,3-dimethyl-2-(2-{3-[3-(4-{2-[(9S)-4,5,13-trimethyl-7-phenyl-3-thia-1,8,11,12-tetraazatricyclo[8.3.0.0^2,^6]trideca-2(6),4,7,10,12-pentaen-9-yl]acetamido}phenoxy)propoxy]propoxy}acetamido)butanoyl]-4-hydroxy-N-{[4-(4-methyl-1,3-thiazol-5-yl)phenyl]methyl}pyrrolidine-2-carboxamide] | 100%
0.01 to 0.1 µM | Cc1ncsc1-c1ccc(CNC(=O)[C@@H]2C[C@@H](O)CN2C(=O)[C@@H](NC(=O)Cc2cccc(OCCCNC(=O)C[C@@H]3N=C(c4ccc(Cl)cc4)c4c(sc(C)c4C)-n4c(C)nnc43)c2)C(C)(C)C)cc1 [Example 61, (2S,4R)-1-[(2S)-2-{2-[3-(3-{2-[(9S)-7-(4-chlorophenyl)-4,5,13-trimethyl-3-thia-1,8,11,12-tetraazatricyclo[8.3.0.0^2,^6]trideca-2(6),4,7,10,12-pentaen-9-yl]acetamido}propoxy)phenyl]acetamido}-3,3-dimethylbutanoyl]-4-hydroxy-N-{[4-(4-methyl-1,3-thiazol-5-yl)phenyl]methyl}pyrrolidine-2-carboxamide] | 96%
0.01 to 0.1 µM | Cc1ncsc1-c1ccc(CNC(=O)[C@@H]2C[C@@H](O)CN2C(=O)[C@@H](NC(=O)COCCCOCCCOc2ccc(NC(=O)C[C@@H]3N=C(c4ccc(Br)cc4)c4c(sc(C)c4C)-n4c(C)nnc43)cc2)C(C)(C)C)cc1 [Example 62] | 98.5%
0.01 to 0.1 µM | C=Cc1ccc(C2=N[C@@H](CC(=O)Nc3ccc(OCCCOCCCOCC(=O)N[C@H](C(=O)N4C[C@H](O)C[C@H]4C(=O)NCc4ccc(-c5scnc5C)cc4)C(C)(C)C)cc3)c3nnc(C)n3-c3sc(C)c(C)c32)cc1 [Example 63] | 98.5%
0.01 to 0.1 µM | CCc1ccc(C2=N[C@@H](CC(=O)Nc3ccc(OCCCOCCCOCC(=O)N[C@H](C(=O)N4C[C@H](O)C[C@H]4C(=O)NCc4ccc(-c5scnc5C)cc4)C(C)(C)C)cc3)c3nnc(C)n3-c3sc(C)c(C)c32)cc1 [Example 64, (2S,4R)-1-[(2S)-2-(2-{3-[3-(4-{2-[(9S)-7-(4-ethylphenyl)-4,5,13-trimethyl-3-thia-1,8,11,12-tetraazatricyclo[8.3.0.0^2,^6]trideca-2(6),4,7,10,12-pentaen-9-yl]acetamido}phenoxy)propoxy]propoxy}acetamido)-3,3-dimethylbutanoyl]-4-hydroxy-N-{[4-(4-methyl-1,3-thiazol-5-yl)phenyl]methyl}pyrrolidine-2-carboxamide] | 96.5%
0.01 to 0.1 µM | Cc1ncsc1-c1ccc(CNC(=O)[C@@H]2C[C@@H](O)CN2C(=O)[C@@H](NC(=O)COCCCOc2ccc([C@@H](C)NC(=O)C[C@@H]3N=C(c4ccc(Cl)cc4)c4c(sc(C)c4C)-n4c(C)nnc43)cc2)C(C)(C)C)cc1 [Example 65] | 95.4%
0.01 to 0.1 µM | Cc1ncsc1-c1ccc(CNC(=O)[C@@H]2C[C@@H](O)CC2C(=O)[C@@H](NC(=O)CO[C@H]2CCN(c3ccc([C@@H](C)NC(=O)C[C@@H]4N=C(c5ccc(Cl)cc5)c5c(sc(C)c5C)-n5c(C)nnc54)cc3)C2)C(C)(C)C)cc1 (stereo partly shown) [Example 66] | 89.4%
0.01 to 0.1 µM | Cc1ncsc1-c1ccc(CNC(=O)[C@@H]2C[C@@H](O)CN2C(=O)[C@@H](NC(=O)CCCCCCCCNC(=O)C[C@@H]2N=C(c3ccc(Cl)cc3)c3c(sc(C)c3C)-n3c(C)nnc32)C(C)(C)C)cc1 [Example 68] | 95.4%
0.01 to 0.1 µM | Cc1ncsc1-c1ccc(CNC(=O)[C@@H]2C[C@@H](O)CN2C(=O)[C@@H](NC(=O)COCCc2cccc(CNC(=O)C[C@@H]3N=C(c4ccc(Cl)cc4)c4c(sc(C)c4C)-n4c(C)nnc43)c2)C(C)(C)C)cc1 [Example 69] | 93.4%
0.01 to 0.1 µM | Cc1ncsc1-c1ccc(CNC(=O)[C@@H]2C[C@@H](O)CN2C(=O)[C@@H](NC(=O)Cc2cccc(CCCCNC(=O)C[C@@H]3N=C(c4ccc(Cl)cc4)c4c(sc(C)c4C)-n4c(C)nnc43)c2)C(C)(C)C)cc1 [Example 70, (2S,4R)-1-[(2S)-2-{2-[3-(4-{2-[(9S)-7-(4-chlorophenyl)-4,5,13-trimethyl-3-thia-1,8,11,12-tetraazatricyclo[8.3.0.0^2,^6]trideca-2(6),4,7,10,12-pentaen-9-yl]acetamido}butyl)phenyl]acetamido}-3,3-dimethylbutanoyl]-4-hydroxy-N-{[4-(4-methyl-1,3-thiazol-5-yl)phenyl]methyl}pyrrolidine-2-carboxamide] | 88.8%
